The source made the active and inactive calls. No cut-off for these calls is given here. Non-standard residues stand in square brackets, D forms with d. Residues, ends and D or L forms follow the SMILES beside them. *: point of attachment. 2Nal = N[C@@H](Cc1ccc2ccccc2c1)C(=O)O; Aad = N[C@@H](CCCC(=O)O)C(=O)O; OBn = c1ccc(CO*)cc1
molecular target: T1, Peroxisome proliferator-activated receptor gamma (Homo sapiens, UniProt P37231); assay: Antagonist activity at human PPARgamma receptor expressed in Saccharomyces cerevisiae AH109 co-transfected with mouse CBP assessed as inhibition of rosiglitazone-induced LBD-CBP interaction by alpha-galactosidase based yeast two hybrid assay; assay type: functional
T1 sequence (P37231 whole entry): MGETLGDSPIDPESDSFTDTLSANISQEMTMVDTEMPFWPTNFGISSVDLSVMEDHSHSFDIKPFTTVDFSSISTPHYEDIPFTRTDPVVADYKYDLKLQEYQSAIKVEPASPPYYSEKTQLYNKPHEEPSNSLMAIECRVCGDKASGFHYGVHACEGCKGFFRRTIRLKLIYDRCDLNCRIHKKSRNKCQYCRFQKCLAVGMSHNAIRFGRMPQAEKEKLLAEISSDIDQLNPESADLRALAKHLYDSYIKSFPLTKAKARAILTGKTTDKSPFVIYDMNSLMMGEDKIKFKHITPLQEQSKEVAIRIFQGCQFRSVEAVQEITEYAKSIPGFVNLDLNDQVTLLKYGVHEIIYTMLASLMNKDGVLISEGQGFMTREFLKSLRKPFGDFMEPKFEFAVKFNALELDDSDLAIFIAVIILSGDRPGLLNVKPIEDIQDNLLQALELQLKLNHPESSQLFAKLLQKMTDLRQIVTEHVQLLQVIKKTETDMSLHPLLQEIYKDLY

IC50	SMILES
18.4 µM	NC(=O)C[C@H](NC(=O)[C@@H](N)Cc1c[nH]c2ccccc12)C(=O)O (H-Trp-Asn-OH)
18.7 µM	NC(=O)CC[C@H](NC(=O)[C@@H](N)Cc1c[nH]c2ccccc12)C(=O)O (H-Trp-Gln-OH)

Further lines, the compound ahead of its results:

SMILES	IC50
C=CCn1cc([N+](=O)[O-])s/c1=N\C(=O)C(C)(C)C	0.82 µM
O=C(Nc1ccccc1)c1cc([N+](=O)[O-])ccc1Cl	3.3 µM
N=C(N)NCCC[C@H](NC(=O)[C@@H](N)Cc1c[nH]c2ccccc12)C(=O)O (H-Trp-Arg-OH)	15.4 µM
O=C(O)C(Oc1cccc(C(F)(F)F)c1)c1ccc(Cl)cc1 (configuration not stated)	0.22 µM
N[C@@H](Cc1c[nH]c2ccccc12)C(=O)N[C@@H](CCC(=O)O)C(=O)O	8.67 µM
CC(=O)NCCOC(=O)C(Oc1cccc(C(F)(F)F)c1)c1ccc(Cl)cc1 (configuration not stated) [HALOFENATE]	40 µM
COP(=O)(OC)OC(c1ccc(Cl)cc1)P(=O)(OC)OC (configuration not stated) [MIFOBATE]	140 µM
N[C@@H](Cc1c[nH]c2ccccc12)C(=O)N[C@@H](CCCC(=O)O)C(=O)O (H-Trp-[Aad]-OH)	15.1 µM
CC(C)(c1ccc(OCC2CO2)cc1)c1ccc(OCC2CO2)cc1 (configuration not stated)	100 µM
CC(C)C[C@H](NC(=O)[C@@H](N)Cc1c[nH]c2ccccc12)C(=O)O (H-Trp-Leu-OH)	25.8 µM
N[C@@H](Cc1c[nH]c2ccccc12)C(=O)N[C@@H](CC(=O)O)C(=O)O	5.2 µM

molecular target: T2, Peroxisome proliferator-activated receptor gamma (Homo sapiens) (UniProt P37231); assay: Antagonist activity at human PPARgamma receptor expressed in Saccharomyces cerevisiae AH109 co-transfected with mouse CBP assessed as inhibition of rosiglitazone-induced LBD-CBP interaction at 10 uM by alpha-galactosidase based yeast two hybrid assay; assay type: functional
T2 sequence (whole entry): T1 sequence (P37231 whole entry)

inhibition	SMILES
5.29%	COC(=O)[C@H](CC(C)C)NC(=O)[C@@H](N)Cc1c[nH]c2ccccc12 (H-Trp-Leu-OMe)
inactive	CC(C)C[C@H](NC(=O)[C@@H](N)Cc1c[nH]c2ccccc12)C(=O)OCc1ccccc1 (H-Trp-Leu-OBn)
4.05%	COC(=O)CC[C@H](NC(=O)[C@@H](N)Cc1c[nH]c2ccccc12)C(=O)OC
inactive	COC(=O)CC[C@@H](NC(=O)[C@@H](N)Cc1c[nH]c2ccccc12)C(=O)OC
inactive	COC(=O)[C@H](CC(C)C)NC(=O)[C@H](N)Cc1ccccc1
5.33%	N[C@@H](Cc1c[nH]c2ccccc12)C(=O)N[C@@H](CC(=O)OCc1ccccc1)C(=O)OCc1ccccc1 (H-Trp-Asp(OBn)-OBn)
inactive	N[C@@H](Cc1c[nH]c2ccccc12)C(=O)N[C@H](CCC(=O)OCc1ccccc1)C(=O)OCc1ccccc1
0.42%	N[C@H](Cc1c[nH]c2ccccc12)C(=O)N[C@H](CC(=O)O)C(=O)O
15.5%	N[C@@H](Cc1c[nH]c2ccccc12)C(=O)N[C@H](CC(=O)O)C(=O)O
36.3%	NC(=O)C[C@H](NC(=O)[C@@H](N)Cc1c[nH]c2ccccc12)C(=O)O (H-Trp-Asn-OH)
38.6%	NC(=O)CC[C@H](NC(=O)[C@@H](N)Cc1c[nH]c2ccccc12)C(=O)O (H-Trp-Gln-OH)
inactive	COC(=O)C[C@H](NC(=O)[C@@H](N)Cc1c[nH]c2ccccc12)C(=O)OC (H-Trp-Asp(OMe)-OMe)

Second part, the compound before the results:

SMILES	inhibition
COC(=O)[C@H](C)NC(=O)[C@@H](N)Cc1ccccc1	inactive
COC(=O)CC[C@H](NC(=O)[C@@H](N)Cc1ccc(OC)cc1)C(=O)OC (H-Tyr(Me)-Glu(OMe)-OMe)	5.26%
N[C@@H](Cc1ccccc1)C(=O)N[C@@H](CC(=O)OCc1ccccc1)C(=O)OCc1ccccc1 (H-Phe-Asp(OBn)-OBn)	inactive
COC(=O)CCC[C@H](NC(=O)[C@@H](N)Cc1c[nH]c2ccccc12)C(=O)OC (H-Trp-[Aad](OMe)-OMe)	8.74%
COC(=O)CC[C@H](NC(=O)[C@@H](N)Cc1ccccc1)C(=O)OC	3.99%
N[C@@H](Cc1c[nH]c2ccccc12)C(=O)N[C@H](CCC(=O)O)C(=O)O	0.4%
N=C(N)NCCC[C@H](NC(=O)[C@@H](N)Cc1c[nH]c2ccccc12)C(=O)O (H-Trp-Arg-OH)	45%
N[C@@H](Cc1c[nH]c2ccccc12)C(=O)N[C@@H](CCC(=O)O)C(=O)O	43.2%
N[C@@H](Cc1ccccc1)C(=O)N[C@@H](CCC(=O)OCc1ccccc1)C(=O)OCc1ccccc1 (H-Phe-Glu(OBn)-OBn)	inactive
N[C@@H](Cc1ccccc1)C(=O)N[C@@H](CC(=O)O)C(=O)O (H-Phe-Asp-OH)	1.12%
N[C@H](Cc1c[nH]c2ccccc12)C(=O)N[C@@H](CC(=O)O)C(=O)O	0.68%
COC(=O)CC[C@H](NC(=O)[C@@H](N)Cc1ccc2ccccc2c1)C(=O)OC (H-[2Nal]-Glu(OMe)-OMe)	14.7%
COC(=O)CCC[C@H](NC(=O)[C@H](N)Cc1ccccc1)C(=O)OC	inactive
COC(=O)CC[C@H](NC(=O)[C@H](N)Cc1ccccc1)C(=O)OC	inactive
N[C@@H](Cc1c[nH]c2ccccc12)C(=O)N[C@@H](CCCC(=O)O)C(=O)O (H-Trp-[Aad]-OH)	70%
COC(=O)[C@H](CC(C)C)NC(=O)[C@@H](N)Cc1ccc2ccccc2c1 (H-[2Nal]-Leu-OMe)	4.34%
N[C@@H](Cc1ccc2ccccc2c1)C(=O)N[C@@H](CCC(=O)O)C(=O)O (H-[2Nal]-Glu-OH)	2.1%
CC(C)C[C@H](NC(=O)[C@@H](N)Cc1c[nH]c2ccccc12)C(=O)O (H-Trp-Leu-OH)	58.2%
N[C@@H](Cc1ccccc1)C(=O)N[C@@H](CCC(=O)O)C(=O)O (H-Phe-Glu-OH)	4.3%
N[C@@H](Cc1c[nH]c2ccccc12)C(=O)N[C@@H](CC(=O)O)C(=O)O	57.8%
N[C@@H](Cc1ccc2ccccc2c1)C(=O)N[C@@H](CCC(=O)OCc1ccccc1)C(=O)OCc1ccccc1 (H-[2Nal]-Glu(OBn)-OBn)	27.7%
COC(=O)C[C@H](NC(=O)[C@H](N)Cc1ccccc1)C(=O)OC	inactive

From ChEMBL document CHEMBL1154460, “Tryptophan-containing dipeptide derivatives as potent PPARgamma antagonists: design, synthesis, biological evaluation, and molecular modeling” (Eur J Med Chem, 2008)
